Laboratory results as given in PMC12615753, “Glutathione as a taste modulator: molecular mechanisms of interaction with umami and sweet taste receptors” (Food Chemistry: Molecular Sciences, 2025).

Legend:
hTAS1R1 D192A/rTAS1R3 = target: T1, hTAS1R1 D192A/rTAS1R3 (UniProt Q7RTX1+Q923K1, D192A); assay: cell-based; format: cell-based, human, rat
T1 construct: UniProtKB number Q7RTX1–1); The cDNA coding region of rTAS1R3 was synthesized with optimized-codon usage for human expression; expressed in transfected cells; host or cells: HEK293T/17
T1 sequence (Q7RTX1 21-841 D192A): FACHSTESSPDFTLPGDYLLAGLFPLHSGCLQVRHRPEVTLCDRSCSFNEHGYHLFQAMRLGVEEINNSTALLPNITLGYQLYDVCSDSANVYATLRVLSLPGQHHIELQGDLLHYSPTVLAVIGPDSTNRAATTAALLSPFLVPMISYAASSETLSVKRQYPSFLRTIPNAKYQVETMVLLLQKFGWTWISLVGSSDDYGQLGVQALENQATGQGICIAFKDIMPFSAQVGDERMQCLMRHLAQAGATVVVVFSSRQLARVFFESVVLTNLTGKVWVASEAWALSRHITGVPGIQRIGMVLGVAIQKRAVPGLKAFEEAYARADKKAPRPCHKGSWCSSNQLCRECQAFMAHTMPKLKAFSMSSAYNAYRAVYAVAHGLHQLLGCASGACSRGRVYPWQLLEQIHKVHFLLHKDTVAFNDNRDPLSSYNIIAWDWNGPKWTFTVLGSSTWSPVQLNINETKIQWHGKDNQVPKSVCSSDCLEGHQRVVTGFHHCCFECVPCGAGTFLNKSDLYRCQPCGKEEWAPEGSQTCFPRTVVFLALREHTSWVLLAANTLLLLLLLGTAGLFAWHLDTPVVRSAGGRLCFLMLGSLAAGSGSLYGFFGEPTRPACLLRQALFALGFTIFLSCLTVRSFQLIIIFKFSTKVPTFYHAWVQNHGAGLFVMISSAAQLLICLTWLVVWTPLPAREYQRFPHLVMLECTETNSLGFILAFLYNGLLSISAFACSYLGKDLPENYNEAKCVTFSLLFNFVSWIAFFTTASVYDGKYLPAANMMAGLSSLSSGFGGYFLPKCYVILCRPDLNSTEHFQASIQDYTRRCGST
T1 sequence (Q923K1 21-858): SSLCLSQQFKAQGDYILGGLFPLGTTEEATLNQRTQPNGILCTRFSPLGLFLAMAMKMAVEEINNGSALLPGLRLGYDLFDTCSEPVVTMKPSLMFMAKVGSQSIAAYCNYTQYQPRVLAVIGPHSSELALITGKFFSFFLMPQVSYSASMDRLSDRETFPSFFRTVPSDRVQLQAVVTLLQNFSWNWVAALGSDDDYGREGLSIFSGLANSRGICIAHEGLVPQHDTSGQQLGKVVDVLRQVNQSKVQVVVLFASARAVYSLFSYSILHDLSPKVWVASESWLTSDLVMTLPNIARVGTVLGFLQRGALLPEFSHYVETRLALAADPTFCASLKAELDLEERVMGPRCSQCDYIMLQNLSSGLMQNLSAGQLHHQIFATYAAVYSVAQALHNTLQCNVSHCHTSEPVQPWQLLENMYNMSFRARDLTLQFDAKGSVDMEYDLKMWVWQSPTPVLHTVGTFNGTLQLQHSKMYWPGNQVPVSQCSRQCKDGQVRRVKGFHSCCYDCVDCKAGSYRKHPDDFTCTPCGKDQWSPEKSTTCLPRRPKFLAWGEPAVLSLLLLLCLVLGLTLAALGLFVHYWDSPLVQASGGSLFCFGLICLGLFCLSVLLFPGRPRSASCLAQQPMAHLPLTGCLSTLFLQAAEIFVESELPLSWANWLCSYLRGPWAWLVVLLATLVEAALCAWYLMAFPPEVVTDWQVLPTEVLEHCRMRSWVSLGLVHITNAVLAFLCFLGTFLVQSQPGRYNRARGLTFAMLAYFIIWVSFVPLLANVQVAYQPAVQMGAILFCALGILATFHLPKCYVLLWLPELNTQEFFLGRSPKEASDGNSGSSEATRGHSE
Excerpt: Chimeric Gα proteins, such as Gα16Gust44, Gα16Gi3 or Gα15i2, are widely used in the functional expression of TAS1R receptors ([Backes et al., 2015]; [Suess et al., 2015]; [Toda et al., 2021], [Toda et al., 2013], [Toda et al., 2018]; [Zhang et al., 2008]). Chimeric Gα15i2 (([Toda et al., 2013]), Supplementary data) was generated by replacing the last five residues of the C-terminal tail of rat Gα15i2 (EINLL) (UniProt number G3V6N8; https://www.uniprot.org/uniprot/) with the counterpart sequence from human GNAI2 (DCGLF) (UniProt number P04899-1) and cloning into the pcDNA3.1/Hygro vector (Invitrogen, Thermo Fisher Scientific, Illkirch, France) between the HindIII and NotI restriction sites, resulting in the plasmid pcDNA3.1-Gα15i2. Chimeric Gα16Gust44 construct have already been reported ([Raliou et al., 2011]). Briefly, Gα16Gust44 was generated by replacing the C-terminal of Gα16 with the C-terminal 44 residues of gustducin. As previously described, hTAS1R1 was amplified from human fungiform papillae cDNA and cloned and inserted into pcDNA3 (Invitrogen), generating pcDNA3-TAS1R1-WT (wild-type) ([Raliou et al., 2011]). […] The cDNA coding region of rTAS1R3 was synthesized with optimized-codon usage for human expression (Genewiz) and was cloned and inserted into the mammalian pcDNA4/myc-HisA (Invitrogen) expression vector between the EcoRI and NotI restriction sites, resulting in the plasmid pcDNA4-rTAS1R3. […] The sequence integrity of all the plasmid constructs was verified via automated DNA sequencing (Genewiz).
The hTAS1R1 mutants were co-expressed with the rTAS1R3 subunit in HEK293 cells. […] As a control, the functionality of the mutated receptors was checked after stimulation with S807 (Fig. S8), which interacts with TAS1R1-TMD ([Zhang et al., 2008]).

rTAS1R3 = rTAS1R3 (Rattus norvegicus, UniProt Q923K1); settings: GSH alone; Fig. 5C
Description: HEK293T/17 cells (ATCC CRL-11268) were seeded into clear bottom black 96-well plates coated with poly-D-lysine at a density of 32500 cells/well in 100 μL of DMEM containing 4.5 g/L glucose and supplemented with penicillin/streptomycin, 2 mM GlutaMAX and 10 % dialyzed fetal bovine serum. The plates were incubated for 24 h at 37 °C and 7.3 % CO2 in a humidified atmosphere. After incubation, using Fugene® 4 K (0.46 μL/well, Promega, Illkirch, France), the cells were transiently transfected with pcDNA3-hTAS1R1-WT (60 ng/well) or TAS1R1 mutants, pcDNA4-rTAS1R3 (60 ng/well), pcDNA3-Gα15i2 (10 ng/well), and pGP-CMV-GCaMP6s (Addgene #40753; 10 ng/well) as a genetically encoded calcium indicator. […] After 20 s of basal fluorescence calcium measurement, the cells were stimulated via automatic injection of a range of compounds in eight wells, and the signal emission was recorded for an additional 70 s, via a FlexStation 3® fluorometric microplate reader (Molecular Devices, San Jose, CA, USA). […] The emitted fluorescence was measured at a wavelength of 510 nm after excitation at 488 nm. […] For each well, the decrease in the raw fluorescence as the relative fluorescence changed was calculated as ΔF/F0. Replicates were averaged for the wells subjected to the same stimuli, the background signal was subtracted, and the fluorescence changes in mock-transfected cells were subtracted. […]

CaSR = settings: ref Ohsu et al., 2010; cited from earlier work

N[C@@H](CCC(=O)N[C@@H](CS)C(=O)NCC(=O)O)C(=O)O [GSH, γ-L-glutamyl-L-cysteinyl-glycine]
EC50 (hTAS1R1 D192A/rTAS1R3): 3.25 ± 0.061 mM
effect of the added compound (1 mM) on the response to L-Glu (hTAS1R1 D192A/rTAS1R3; D192A): synergy was observed
response to the agonist alone, vs WT (hTAS1R1 D192A/rTAS1R3; D192A): significantly increased the initial amplitude
Max ∆F/F0 (hTAS1R1 D192A/rTAS1R3; D192A, GSH): 0.65 ± 0.01
R1 = mutant EC50/WT EC50 (hTAS1R1 D192A/rTAS1R3; D192A, GSH): 1.3
response of transfected cells (rTAS1R3): did not respond
EC50 (CaSR): 0.00071 mM
